Experimental data: patent EP0508726A1, “Novel process for the preparation of 9-deoxo-8a-aza-8a-homoerythromycin a and its 8a-alkyl derivatives” (MERCK & CO. INC., priority 1991, dated 1992)
≈ marks a conversion by molar mass, not a printed value.

Columns and labels:
Experiment in all cases: liquid turbidimetric microtiter MIC determination
Assay type in all cases: cell-based
[1] = test system: Enterococcus faecalis MB 5407; details: MB5407, brain heart infusion broth
Text: (§1) The antibacterial activities of compounds (IV), (X) against a panel of aerobic Gram positive and negative bacteria is shown in the following Table. The assay employs a liquid turbidimetric microtiter method for the determination of the minimum inhibitory concentration (MIC) in brain heart infusion broth. […] The MIC is generally not an absolute value but rather a concentration range that falls within a two-fold dilution limit. Generally twelve two-fold dilutions of the test compound are employed with the initial concentration set at 128 mcg/ml.

[2] = test system: Enterococcus faecium MB 5416; details: MB5416, brain heart infusion broth
Text: as §1

[3] = test system: Escherichia coli MB 2884; details: MB2884, brain heart infusion broth
Text: as §1

[4] = test system: Escherichia coli MB 4926; details: MB4926, brain heart infusion broth
Text: as §1

[5] = test system: Klebsiella pneumoniae MB 4005; details: MB4005, brain heart infusion broth
Text: as §1

[6] = test system: Pseudomonas stutzeri MB 1231; details: Stutzerimonas stutzeri, MB1231, brain heart infusion broth
Text: as §1

[7] = test system: Staphylococcus aureus MB 2865; details: MB2865, brain heart infusion broth
Text: as §1

[8] = test system: Staphylococcus epidermidis MB 5414; details: MB5414, brain heart infusion broth
Text: as §1

[9] = test system: Staphylococcus haemolyticus MB 5412; details: MB5412, brain heart infusion broth
Text: as §1

[10] = test system: Steptococcus viridans CL 2943; details: brain heart infusion broth
Text: as §1

[11] = test system: Streptococcus agalactiae CL 1343; details: CL1343, brain heart infusion broth
Text: as §1

[12] = test system: Streptococcus pneumoniae CL 2883; details: CL2883, brain heart infusion broth
Text: as §1

[13] = test system: Streptococcus pyogenes MB 2874; details: MB2874, brain heart infusion broth
Text: as §1

[14] = test system: Streptococcus pyogenes MB 54061; details: MB54061, brain heart infusion broth
Text: as §1

[15] = test system: Yersinia enterocoltica CL 1598; details: CL1598, brain heart infusion broth
Text: as §1

SMILES | MIC [1] | MIC [2] | MIC [3] | MIC [4] | MIC [5] | MIC [6] | MIC [7] | MIC [8] | MIC [9] | MIC [10] | MIC [11] | MIC [12] | MIC [13] | MIC [14] | MIC [15]
CC[C@H]1OC(=O)[C@H](C)[C@@H](O[C@H]2C[C@@](C)(OC)[C@@H](O)[C@H](C)O2)[C@H](C)[C@@H](O[C@@H]2O[C@H](C)C[C@H](N(C)C)[C@H]2O)[C@](C)(O)C[C@@H](C)N(C)C[C@H](C)[C@@H](O)[C@]1(C)O [(X), 9-Deoxo-8a-methyl-8a-aza-8a-homoerythromycin A] | 4 µg/mL (≈ 5.34 µM) | 0.25 µg/mL (≈ 0.334 µM) | 1 µg/mL (≈ 1.34 µM) | ≤ 0.06 µg/mL | 2 µg/mL (≈ 2.67 µM) | ≤ 0.06 µg/mL | 0.5 µg/mL (≈ 0.668 µM) | 1 µg/mL (≈ 1.34 µM) | 0.5 µg/mL (≈ 0.668 µM) | 1 µg/mL (≈ 1.34 µM) | ≤ 0.06 µg/mL | ≤ 0.06 µg/mL | ≤ 0.06 µg/mL | 128 µg/mL (≈ 171 µM) | 2 µg/mL (≈ 2.67 µM)
CC[C@H]1OC(=O)[C@H](C)[C@@H](O[C@H]2C[C@@](C)(OC)[C@@H](O)[C@H](C)O2)[C@H](C)[C@@H](O[C@@H]2O[C@H](C)C[C@H](N(C)C)[C@H]2O)[C@](C)(O)C[C@@H](C)NC[C@H](C)[C@@H](O)[C@]1(C)O [(IV), 9-Deoxo-8a-aza-8a-homoerythromycin A] | 8 µg/mL (≈ 10.9 µM) | 0.25 µg/mL (≈ 0.34 µM) | 4 µg/mL (≈ 5.44 µM) | 2 µg/mL (≈ 2.72 µM) | 64 µg/mL (≈ 87.1 µM) | ≤ 0.06 µg/mL | 0.5 µg/mL (≈ 0.68 µM) | 1 µg/mL (≈ 1.36 µM) | 0.5 µg/mL (≈ 0.68 µM) | 8 µg/mL (≈ 10.9 µM) | ≤ 0.06 µg/mL | 0.06 µg/mL (≈ 0.0816 µM) | 0.06 µg/mL (≈ 0.0816 µM) | 128 µg/mL (≈ 174 µM) | 8 µg/mL (≈ 10.9 µM)
